The values that follow come from ChEMBL document CHEMBL4017512 (J Med Chem, 2017).

In one experiment the test system is HCT-116. The experiment in a line: Antiproliferative activity against human HCT116 cells after 72 hrs by phosphatase assay. It counts as functional, cell-based. Conditions: HCT-116, 72 h.
Experiment [1] in a line: Cytotoxicity against human HCT116/VM46 cells assessed as reduction in cell viability after 72 hrs by phosphatase assay. It counts as cell-based. Conditions: HCT-116/VM46, 72 h.
Another experiment relates to L1210. The experiment in a line: Antiproliferative activity against mouse L1210 cells after 72 hrs by phosphatase assay. It counts as functional, cell-based. Conditions: L1210, 72 h.

Structures are written as SMILES.

By IC50 is commonly meant the concentration that inhibits the measured activity by half.

In the case of `CC[C@]1(NC(=O)C2CCc3ccccc3C2)C[C@H]2CN(CCc3c([nH]c4ccccc34)[C@@](C(=O)OC)(c3cc4c(cc3OC)N(C)[C@H]3[C@@](O)(C(=O)OC)[C@H](OC(C)=O)[C@]5(CC)C=CCN6CC[C@]43[C@@H]65)C2)C1` (stereo not given in full), the IC50 worked out at 580 nM with HCT-116, 960 nM in experiment [1] and 420 nM in the experiment on L1210.
With `CC[C@]1(NC(=O)c2cncs2)C[C@H]2CN(CCc3c([nH]c4ccccc34)[C@@](C(=O)OC)(c3cc4c(cc3OC)N(C)[C@H]3[C@@](O)(C(=O)OC)[C@H](OC(C)=O)[C@]5(CC)C=CCN6CC[C@]43[C@@H]65)C2)C1`, the IC50 in the experiment on HCT-116 is 0.6 nM; in experiment [1] it was 45 nM; in the experiment on L1210 it was 1.8 nM.
For `CC[C@]1(NC(=O)c2ccc3cc(NC(=O)OC(C)(C)C)ccc3c2)C[C@H]2CN(CCc3c([nH]c4ccccc34)[C@@](C(=O)OC)(c3cc4c(cc3OC)N(C)[C@H]3[C@@](O)(C(=O)OC)[C@H](OC(C)=O)[C@]5(CC)C=CCN6CC[C@]43[C@@H]65)C2)C1`, the half-inhibitory concentration (IC50) with HCT-116 came out at 6.5 nM; in experiment [1] it was 60 nM; with L1210, 5 nM.
The matching figures for `CC[C@]1(NC(=O)C2CCC2)C[C@H]2CN(CCc3c([nH]c4ccccc34)[C@@](C(=O)OC)(c3cc4c(cc3OC)N(C)[C@H]3[C@@](O)(C(=O)OC)[C@H](OC(C)=O)[C@]5(CC)C=CCN6CC[C@]43[C@@H]65)C2)C1`: 5.4 nM, 85 nM and 5.4 nM.
For the compound `CC[C@]1(NC(=O)C2CC2)C[C@H]2CN(CCc3c([nH]c4ccccc34)[C@@](C(=O)OC)(c3cc4c(cc3OC)N(C)[C@H]3[C@@](O)(C(=O)OC)[C@H](OC(C)=O)[C@]5(CC)C=CCN6CC[C@]43[C@@H]65)C2)C1`, the 50% inhibitory concentration (IC50) in the experiment on HCT-116 is 6.1 nM; in experiment [1], 95 nM; with L1210 it was 5.5 nM.
The matching figures for `CC[C@]1(NC(=O)c2ccc(CN)cc2)C[C@H]2CN(CCc3c([nH]c4ccccc34)[C@@](C(=O)OC)(c3cc4c(cc3OC)N(C)[C@H]3[C@@](O)(C(=O)OC)[C@H](OC(C)=O)[C@]5(CC)C=CCN6CC[C@]43[C@@H]65)C2)C1`: 3.5 nM, 470 nM and 25 nM.
In the case of `CC[C@]1(NC(=O)c2cnco2)C[C@H]2CN(CCc3c([nH]c4ccccc34)[C@@](C(=O)OC)(c3cc4c(cc3OC)N(C)[C@H]3[C@@](O)(C(=O)OC)[C@H](OC(C)=O)[C@]5(CC)C=CCN6CC[C@]43[C@@H]65)C2)C1`, the half-inhibitory concentration (IC50) in the experiment with HCT-116 amounted to 3.5 nM; in experiment [1] it was 65 nM; in the experiment with L1210 it was 3.9 nM.
The like results for `CC[C@]1(NC(=O)c2ccc(OC)c(OC(F)(F)F)c2)C[C@H]2CN(CCc3c([nH]c4ccccc34)[C@@](C(=O)OC)(c3cc4c(cc3OC)N(C)[C@H]3[C@@](O)(C(=O)OC)[C@H](OC(C)=O)[C@]5(CC)C=CCN6CC[C@]43[C@@H]65)C2)C1` were, in that order, 2.2 nM, 17 nM and 1.7 nM.
The matching figures for `CC[C@]1(NC(=O)c2ccc(OC(C)(C)C)cc2)C[C@H]2CN(CCc3c([nH]c4ccccc34)[C@@](C(=O)OC)(c3cc4c(cc3OC)N(C)[C@H]3[C@@](O)(C(=O)OC)[C@H](OC(C)=O)[C@]5(CC)C=CCN6CC[C@]43[C@@H]65)C2)C1`: 0.6 nM, 6.8 nM and 0.6 nM.
The like results for `CC[C@]1(NC(=O)c2ccnnc2)C[C@H]2CN(CCc3c([nH]c4ccccc34)[C@@](C(=O)OC)(c3cc4c(cc3OC)N(C)[C@H]3[C@@](O)(C(=O)OC)[C@H](OC(C)=O)[C@]5(CC)C=CCN6CC[C@]43[C@@H]65)C2)C1` were, in that order, 9 nM, 700 nM and 30 nM.
